Reference: publication PMC10980263, “Cryo-EM structures of the human NaS1 and NaDC1 transporters revealed the elevator transport and allosteric regulation mechanism” (Science Advances, 2024)
Positions count from the first letter of the chain named.

What was measured:
NaDC1 [1] = molecular target: T1, NaDC1 (Homo sapiens, UniProt Q13183, N476A); test: CD thermal melting at […] nm; assay type: binding; settings: absolute Tm in presence of citrate, not a shift
T1 construct: gene SLC13A2; full length, homodimer; N-terminal FLAG purified from HEK293F (structures, natural variant I550V); GFP and FLAG tagged in HEK293T for currents
T1 sequence (Q13183 1-592 N476A): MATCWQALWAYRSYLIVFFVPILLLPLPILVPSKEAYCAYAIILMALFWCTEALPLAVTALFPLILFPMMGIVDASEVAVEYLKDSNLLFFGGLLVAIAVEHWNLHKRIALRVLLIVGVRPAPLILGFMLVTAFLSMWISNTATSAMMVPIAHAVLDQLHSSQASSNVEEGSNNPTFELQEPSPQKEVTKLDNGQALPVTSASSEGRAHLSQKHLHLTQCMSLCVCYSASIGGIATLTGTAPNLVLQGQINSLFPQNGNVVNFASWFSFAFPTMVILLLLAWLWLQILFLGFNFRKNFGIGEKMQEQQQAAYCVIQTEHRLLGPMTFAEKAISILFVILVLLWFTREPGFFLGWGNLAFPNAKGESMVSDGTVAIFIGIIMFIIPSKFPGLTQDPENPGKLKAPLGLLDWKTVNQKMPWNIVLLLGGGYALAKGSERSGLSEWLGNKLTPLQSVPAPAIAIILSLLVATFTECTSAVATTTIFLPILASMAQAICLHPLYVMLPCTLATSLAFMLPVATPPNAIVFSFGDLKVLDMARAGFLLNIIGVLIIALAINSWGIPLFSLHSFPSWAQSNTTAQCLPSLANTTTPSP

NaDC1 [2] = molecular target: T2, NaDC1 (Homo sapiens, UniProt Q13183, I550V); test: cryo-EM structure ([…] Å); assay type: binding; settings: 10 mM sodium citrate; substrate site; Na+ at Na1 and Na2
T2 construct: gene SLC13A2; full length, homodimer; N-terminal FLAG purified from HEK293F (structures, natural variant I550V); GFP and FLAG tagged in HEK293T for currents
T2 sequence (Q13183 1-592 I550V): T1 sequence (Q13183 1-592 N476A) with A476N, I550V

NaDC1 [3] = molecular target: T3, NaDC1 (Homo sapiens, UniProt Q13183, R108A); test: whole-cell patch clamp, transfected HEK293T; assay type: cell-based; settings: citrate-induced current; 140 mM NaCl bath, pH 7.4
T3 construct: gene SLC13A2; full length, homodimer; N-terminal FLAG purified from HEK293F (structures, natural variant I550V); GFP and FLAG tagged in HEK293T for currents
T3 sequence (Q13183 1-592 R108A): T1 sequence (Q13183 1-592 N476A) with R108A, A476N

**Q.** O=C(O)CC(O)(CC(=O)O)C(=O)O [citrate] was tested. Which Tm (NaDC1 [1]) did it give?
**A.** The Tm was 60.5 ± 0.7 °C.

**Q.** What about the “cryo-EM structure (2.7 Å)” value (NaDC1 [2]) of the same molecule?
**A.** Its value is “we discern two sodium ions and one citrate molecule distinctly situated within a single protomer”.

**Q.** What about the “whole-cell patch clamp, transfected HEK293T” value (NaDC1 [3]) of the same molecule?
**A.** The value was “The R108A mutant substantially reduced the citrate-induced current than WT in NaDC1”.
